Assay results from patent US20080261977A1, “Pyrimidine Derivatives as Cannabinoid Receptor Modulators” (priority 2004, published 2008).
Structures can show the parent of a compound that is named as a salt. Where two headings read alike, the source gives them in different places. Blank lines part the entries; values can stand above or below the molecule they belong to.

Biological target: T1, human cannabinoid CB2 receptor (Homo sapiens, UniProt P34972)
T1 construct: expressed in transfected cells; host or cells: Saccharomyces cerevisiae strain MMY23 (cassette integrated at the ura3 locus; chimeric Gpa1/Gαi3)
Assay: Cannabinoid CB2 receptor agonist activity, yeast (Saccharomyces cerevisiae) cells expressing the receptor, FDGlu fluorescence
Type: cell-based
Details: for Emax: read-out: efficacy (Emax relative to HU210) at the cloned human cannabinoid CB2 receptor
Protocol: The cannabinoid CB2 receptor agonist activity of the compounds of formula (I) was determined in accordance with the following experimental method.
Yeast (Saccharomyces cerevisiae) cells expressing the human cannabinoid CB2 receptor were generated by integration of an expression cassette into the ura3 chromosomal locus of yeast strain MMY23. This cassette consisted of DNA sequence encoding the human CB2 receptor flanked by the yeast GPD promoter to the 5′ end of CB2 and a yeast transcriptional terminator sequence to the 3′ end of CB2. MMY23 expresses a yeast/mammalian chimeric G-protein alpha subunit in which the C-terminal 5 amino acids of Gpa1 are replaced with the C-terminal 5 amino acids of human Gαi3 (as described in Brown et al. (2000), Yeast 16:11-22). Cells were grown at 30° C. in liquid Synthetic Complete (SC) yeast media (Guthrie and Fink (1991), Methods in Enzymology, Vol. 194) lacking uracil, tryptophan, adenine and leucine to late logarithmic phase (approximately 6 OD600/ml).
Agonists were prepared as 10 mM stocks in DMSO. EC50 values (the concentration required to produce 50% maximal response) were estimated using dilutions of between 3- and 5-fold (BiomekFX, Beckman) into DMSO. Agonist solutions in DMSO (1% final assay volume) were transferred into black, clear bottom, microtitre plates from NUNC (96- or 384-well). Cells were suspended at a density of 0.2 OD600/ml in SC media lacking histidine, uracil, tryptophan, adenine and leucine and supplemented with 10 mM 3-aminotriazole, 0.1M sodium phosphate pH 7.0, and […] fluorescein di-β-D-glucopyranoside (FDGlu). This mixture (50 ul per well for 384-well plates, 200 ul per well for 96-well plates) was added to agonist in the assay plates (Multidrop 384, Labsystems). After incubation at 30° C. for 24 hours, fluorescence resulting from degradation of FDGlu to fluorescein due to exoglucanase, an endogenous yeast enzyme produced during agonist-stimulated cell growth, was determined using a Spectrofluor microtitre plate reader (Tecan; excitation wavelength: 485 nm; emission wavelength: 535 nm). Fluorescence was plotted against compound concentration and iteratively curve fitted using a four parameter fit to generate a concentration effect value. Efficacy (Emax) was calculated from the equation
Emax=Max[compound X]−Min[compound X]/Max[HU210]−Min[HU210]×100%
where Max[compound X] and Min[compound X] are the fitted maximum and minimum respectively from the concentration effect curve for compound X, and Max[HU210] and Min[HU210] are the fitted maximum and minimum respectively from the concentration effect curve for (6aR,10aR)-3-1,1′-Dimethylheptyl)-6a,7,10,10a-tetrahydro-1-hydroxy-6,6-dimethyl-6H-dibenzo[b,d]pyran-9-methanol (HU210; available from Tocris). Equieffective molar ratio (EMR) values were calculated from the equation
Where EC50[compound X] is the EC50 of compound X and EC50[HU210] is the EC50 of HU210.

[1] = yeast agonist assay, read-out: EC50 at the cloned human cannabinoid CB2 receptor

T1 sequence (P34972 whole entry): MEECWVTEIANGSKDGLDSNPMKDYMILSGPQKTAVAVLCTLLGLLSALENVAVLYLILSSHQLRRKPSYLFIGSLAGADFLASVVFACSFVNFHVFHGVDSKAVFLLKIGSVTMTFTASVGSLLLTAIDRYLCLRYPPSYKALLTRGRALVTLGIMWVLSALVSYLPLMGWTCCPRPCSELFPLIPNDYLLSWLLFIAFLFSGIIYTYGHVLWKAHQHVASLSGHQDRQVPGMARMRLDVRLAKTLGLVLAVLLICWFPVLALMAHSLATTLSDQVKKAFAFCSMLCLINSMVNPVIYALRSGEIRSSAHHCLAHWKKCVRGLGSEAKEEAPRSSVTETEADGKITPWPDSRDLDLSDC

EC50 [1]: < 300 nM
Emax (yeast agonist assay): > 50%
SMILES: CC(C)CCNCc1cnc(Nc2cccc(Cl)c2)nc1C(F)(F)F [Example 24, (3-Chlorophenyl)-{5-[(3-methylbutylamino)-methyl]-4-trifluoromethyl-pyrimidin-2-yl}-amine,formate]

EC50 [1]: < 300 nM
Emax (yeast agonist assay): > 50%
SMILES: Fc1cccc(Nc2ncc(CNC3CC3)c(C(F)(F)F)n2)c1 [Example 38, (3-Fluorophenyl)-(5-cyclopropylaminomethyl-4-trifluoromethyl-pyrimidin-2-yl)-amine]

EC50 [1]: < 300 nM
Emax (yeast agonist assay): > 50%
SMILES: CC(C)(C)c1nc(Nc2cccc(Cl)c2)ncc1CNCC1CCOCC1 [Example 99, (4-tert-Butyl-5-{[(tetrahydro-pyran-4-ylmethyl)-amino]-methyl}-pyrimidin-2-yl)-(3-chloro-phenyl)-aminehydrochloride]

EC50 [1]: < 300 nM
Emax (yeast agonist assay): > 50%
SMILES: COCCNCc1cnc(Nc2ccc(Cl)cc2Cl)nc1C(F)(F)F [Example 33, (2,4-Dichlorophenyl)-{5-[(2-methoxy-ethylamino)-methyl]-4-trifluoromethyl-pyrimidin-2-yl}-amine]

EC50 [1]: < 300 nM
Emax (yeast agonist assay): > 50%
SMILES: CC(C)(C)c1nc(Nc2cccc(Cl)c2)ncc1CN1CCOCC1 [Example 97, (4-tert-Butyl-5-morpholin-4-ylmethyl-pyrimidin-2-yl)-(3-chloro-phenyl)-amine hydrochloride]

Second part, the molecule before the results:

SMILES: CCCCN(C)Cc1cnc(Nc2cccc(Cl)c2)nc1C(F)(F)F [Example 47, {5-[(Butyl-methyl-amino)-methyl]-4-trifluoromethyl-pyrimidin-2-yl}-(3-chlorophenyl)-amine]
Emax: > 50%
EC50 [1]: 300 to 1000 nM

SMILES: FC(F)(F)c1nc(Nc2cccc(Cl)c2)ncc1CNC1CCCC1 [Example 34]
EC50: < 300 nM
Emax: > 50%

SMILES: CC(C)CNCc1cnc(Nc2cccc(Cl)c2)nc1C(C)(C)C [Example 102, (4-tert-Butyl-5-(isobutylamino-methyl)-pyrimidin-2-yl]-(3-chloro-phenyl)-aminehydrochloride]
EC50 [1]: < 300 nM
Emax (yeast agonist assay): > 50%

SMILES: CC(C)(C)CNCc1cnc(Nc2cccc(Cl)c2)nc1C(F)(F)F [Example 20, (3-Chlorophenyl)-{5-[(2,2-dimethylpropylamino)-methyl]-4-trifluoromethyl-pyrimidin-2-yl}-amine]
EC50: < 300 nM
Emax: > 50%

SMILES: FC(F)(F)c1nc(Nc2cccc(Cl)c2)ncc1CN1CCCC1 [Example 40, (3-Chlorophenyl)-(5-pyrrolidin-1-ylmethyl-4-trifluoromethyl-pyrimidin-2-yl)-amine, formate]
Emax: > 50%
EC50 [1]: 300 to 1000 nM

SMILES: CC(c1cnc(Nc2cccc(Cl)c2)nc1C(F)(F)F)N1CCOCC1 (stereo not shown) [Example 93, (3-Chlorophenyl)-[5-(1-morpholin-4-yl-ethyl)-4-trifluoromethyl-pyrimidin-2-yl]-amine]
EC50: < 300 nM
Emax: > 50%

SMILES: Fc1ccc(CNCc2cnc(Nc3cccc(Cl)c3)nc2C(F)(F)F)cc1 [Example 41, (3-Chlorophenyl)-{5-[(4-fluorobenzylamino)-methyl]-4-trifluoromethyl-pyrimidin-2-yl)-amine,formate]
Emax: > 50%
EC50 [1]: 300 to 1000 nM

SMILES: FC(F)(F)c1nc(Nc2cccc(Cl)c2)ncc1CNCCCc1ccccc1 [Example 46, (3-Chlorophenyl)-[5-(phenpropylamino-methyl)-4-trifluoromethyl-pyrimidin-2-yl]-amine, formate]
Emax: > 50%
EC50 [1]: 300 to 1000 nM

SMILES: CC(C)(C)c1nc(Nc2cccc(Cl)c2)ncc1CNCC1CC1 [Example 103, (4-tert-Butyl-5-[(cyclopropylmethyl-amino)-methyl]-pyrimidin-2-yl}-(3-chloro-phenyl)-aminehydrocholoride]
EC50 [1]: < 300 nM
Emax (yeast agonist assay): > 50%
